Results from PubChem BioAssay AID248 (DTP/NCI, 2004).
Several values for one entry are separate records, joined by “and”; a condition that tells them apart may be missing. Equal entries are not always repeated. Inconclusive results and toxic doses are left out. Rule as the data show it: active = T/C of 150% or more; inactive = T/C below 125%.

System: L1210 leukemia ip in BDF1 mice, survival T/C
Test: NCI In Vivo Anticancer Drug Screen. Data for tumor model L1210 Leukemia (intraperitoneal) in B6D2F1 (BDF1) mice
Conditions: higher = longer survival
Method in brief: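 Tumor cells were implanted, animals were treated, and survival was followed. The result divides the treated measurement by the vehicle-control measurement.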

[1] = endpoint: mean survival time, dose: 100.0 mg/kg/injection, schedule: Q01DX001 (ip), vehicle: saline
[2] = endpoint: mean survival time, dose: 200.0 mg/kg/injection, schedule: Q01DX001 (ip), vehicle: saline
[3] = endpoint: mean survival time, dose: 100.0 mg/kg/injection, schedule: Q04DX003 (ip), vehicle: Klucel (hydroxypropylcellulose) (HPC)
[4] = endpoint: mean survival time, dose: 200.0 mg/kg/injection, schedule: Q04DX003 (ip), vehicle: Klucel (hydroxypropylcellulose) (HPC)
[5] = endpoint: mean survival time, dose: 400.0 mg/kg/injection, schedule: Q04DX003 (ip), vehicle: Klucel (hydroxypropylcellulose) (HPC)
[6] = endpoint: mean survival time, dose: 100.0 mg/kg/injection, schedule: Q04DX003 (ip), vehicle: saline with Tween-80
[7] = endpoint: mean survival time, dose: 200.0 mg/kg/injection, schedule: Q04DX003 (ip), vehicle: saline with Tween-80
[8] = endpoint: mean survival time, dose: 400.0 mg/kg/injection, schedule: Q04DX003 (ip), vehicle: saline with Tween-80

Measured: T/C

COC(=O)C1C(=C(c2ccccc2)c2ccccc2)C1c1ccccc1 (stereo not given)
inactive: endpoint: mean survival time, dose: 75.0 mg/kg/injection, schedule: Q04DX003 (ip), vehicle: Klucel (hydroxypropylcellulose) (HPC) 96 % of control | endpoint: mean survival time, dose: 100.0 mg/kg/injection, schedule: Q01DX001 (ip), vehicle: Klucel (hydroxypropylcellulose) (HPC) 95 % of control | endpoint: mean survival time, dose: 100.0 mg/kg/injection, schedule: Q01DX001 (ip), vehicle: steriod suspending solution 93 % of control | endpoint: mean survival time, dose: 150.0 mg/kg/injection, schedule: Q04DX003 (ip), vehicle: Klucel (hydroxypropylcellulose) (HPC) 94 % of control | endpoint: mean survival time, dose: 200.0 mg/kg/injection, schedule: Q01DX001 (ip), vehicle: Klucel (hydroxypropylcellulose) (HPC) 95 % of control | endpoint: mean survival time, dose: 200.0 mg/kg/injection, schedule: Q01DX001 (ip), vehicle: steriod suspending solution 98 % of control | endpoint: mean survival time, dose: 300.0 mg/kg/injection, schedule: Q04DX003 (ip), vehicle: Klucel (hydroxypropylcellulose) (HPC) 100 % of control | endpoint: mean survival time, dose: 400.0 mg/kg/injection, schedule: Q01DX001 (ip), vehicle: Klucel (hydroxypropylcellulose) (HPC) 103 % of control | endpoint: mean survival time, dose: 400.0 mg/kg/injection, schedule: Q01DX001 (ip), vehicle: steriod suspending solution 95 % of control

Cc1c(N)nc([C@H](CC(N)=O)NC[C@H](N)C(N)=O)nc1C(=O)N[C@H](C(=O)N[C@H](C)[C@@H](O)[C@H](C)C(=O)N[C@H](C(=O)NCCc1nc(-c2nc(C(=O)NCCC[S+](C)C)cs2)cs1)[C@@H](C)O)C(OC1OC(CO)C(O)C(O)C1OC1OC(CO)C(O)C(OC(N)=O)C1O)c1cnc[nH]1 (stereo not given in full)
inactive: endpoint: mean survival time, dose: 0.35 mg/kg/injection, schedule: Q01DX009 (ip), vehicle: saline 99 % of control and 100 % of control | endpoint: mean survival time, dose: 0.7 mg/kg/injection, schedule: Q01DX009 (ip), vehicle: saline 100 % of control | endpoint: mean survival time, dose: 1.3 mg/kg/injection, schedule: Q01DX009 (ip), vehicle: saline 99 % of control and 107 % of control | endpoint: mean survival time, dose: 2.0 mg/kg/injection, schedule: Q01DX009 (ip), vehicle: saline 101 % of control | endpoint: mean survival time, dose: 2.0 mg/kg/injection, schedule: Q04DX002 (ip), vehicle: saline 97 % of control | endpoint: mean survival time, dose: 2.5 mg/kg/injection, schedule: Q01DX009 (ip), vehicle: saline 110 % of control and 119 % of control | endpoint: mean survival time, dose: 4.0 mg/kg/injection, schedule: Q01DX009 (ip), vehicle: saline 107 % of control and 109 % of control and 112 % of control | endpoint: mean survival time, dose: 4.0 mg/kg/injection, schedule: Q04DX002 (ip), vehicle: saline 103 % of control and 105 % of control | endpoint: mean survival time, dose: 5.0 mg/kg/injection, schedule: Q01DX009 (ip), vehicle: saline 94 % of control and 107 % of control | endpoint: mean survival time, dose: 5.8 mg/kg/injection, schedule: Q01DX009 (ip), vehicle: clinical formulation 93 % of control | endpoint: mean survival time, dose: 7.81 mg/kg/injection, schedule: Q01DX009 (ip), vehicle: saline 109 % of control | endpoint: mean survival time, dose: 8.0 mg/kg/injection, schedule: Q01DX009 (ip), vehicle: saline 104 % of control and 109 % of control and 110 % of control | endpoint: mean survival time, dose: 8.0 mg/kg/injection, schedule: Q04DX002 (ip), vehicle: saline 100 % of control and 108 % of control | endpoint: mean survival time, dose: 8.7 mg/kg/injection, schedule: Q01DX009 (ip), vehicle: clinical formulation 95 % of control | endpoint: mean survival time, dose: 10.0 mg/kg/injection, schedule: Q01DX009 (ip), vehicle: saline 106 % of control and 110 % of control | endpoint: mean survival time, dose: 13.0 mg/kg/injection, schedule: Q01DX009 (ip), vehicle: clinical formulation 92 % of control | endpoint: mean survival time, dose: 15.62 mg/kg/injection, schedule: Q01DX009 (ip), vehicle: saline 104 % of control | endpoint: mean survival time, dose: 16.0 mg/kg/injection, schedule: Q01DX009 (ip), vehicle: saline 93 % of control and 108 % of control and 114 % of control | endpoint: mean survival time, dose: 16.0 mg/kg/injection, schedule: Q04DX002 (ip), vehicle: saline 97 % of control and 103 % of control | endpoint: mean survival time, dose: 20.0 mg/kg/injection, schedule: Q01DX009 (ip), vehicle: clinical formulation 93 % of control | endpoint: mean survival time, dose: 30.0 mg/kg/injection, schedule: Q01DX009 (ip), vehicle: clinical formulation 87 % of control | endpoint: mean survival time, dose: 31.0 mg/kg/injection, schedule: Q04DX002 (ip), vehicle: saline 103 % of control and 106 % of control | endpoint: mean survival time, dose: 31.25 mg/kg/injection, schedule: Q01DX001 (ip), vehicle: saline 100 % of control | endpoint: mean survival time, dose: 31.25 mg/kg/injection, schedule: Q01DX009 (ip), vehicle: saline 116 % of control | endpoint: mean survival time, dose: 32.0 mg/kg/injection, schedule: Q01DX009 (ip), vehicle: saline 113 % of control and 91 % of control and 92 % of control | endpoint: mean survival time, dose: 62.0 mg/kg/injection, schedule: Q04DX002 (ip), vehicle: saline 93 % of control and 101 % of control | endpoint: mean survival time, dose: 62.5 mg/kg/injection, schedule: Q01DX001 (ip), vehicle: saline 122 % of control | endpoint: mean survival time, dose: 62.5 mg/kg/injection, schedule: Q01DX009 (ip), vehicle: saline 107 % of control | endpoint: mean survival time, dose: 125.0 mg/kg/injection, schedule: Q01DX001 (ip), vehicle: saline 106 % of control | endpoint: mean survival time, dose: 125.0 mg/kg/injection, schedule: Q01DX009 (ip), vehicle: saline 97 % of control | endpoint: mean survival time, dose: 250.0 mg/kg/injection, schedule: Q01DX001 (ip), vehicle: saline 106 % of control | endpoint: median survival time, dose: 3.0 mg/kg/injection, schedule: Q01DX009 (ip), vehicle: saline 99 % of control | endpoint: median survival time, dose: 4.0 mg/kg/injection, schedule: Q01DX009 (ip), vehicle: saline 100 % of control and 110 % of control | endpoint: median survival time, dose: 5.0 mg/kg/injection, schedule: Q01DX009 (ip), vehicle: saline 101 % of control | endpoint: median survival time, dose: 8.0 mg/kg/injection, schedule: Q01DX009 (ip), vehicle: saline 106 % of control and 120 % of control | endpoint: median survival time, dose: 8.4 mg/kg/injection, schedule: Q01DX009 (ip), vehicle: saline 98 % of control | endpoint: median survival time, dose: 14.0 mg/kg/injection, schedule: Q01DX009 (ip), vehicle: saline 96 % of control | endpoint: median survival time, dose: 16.0 mg/kg/injection, schedule: Q01DX009 (ip), vehicle: saline 106 % of control | endpoint: median survival time, dose: 23.0 mg/kg/injection, schedule: Q01DX009 (ip), vehicle: saline 96 % of control | endpoint: median survival time, dose: 32.0 mg/kg/injection, schedule: Q01DX009 (ip), vehicle: saline 100 % of control | endpoint: median survival time, dose: 39.0 mg/kg/injection, schedule: Q01DX009 (ip), vehicle: saline 88 % of control

c1ccc(C2(c3ccccc3)CC([P+](c3ccccc3)(c3ccccc3)c3ccccc3)=NN2)cc1
inactive: [1] 108 % of control | [2] 115 % of control

CN(c1ccccc1)S(=O)(=O)c1cccc([N+](=O)[O-])c1
inactive: [3] 103 % of control | [4] 94 % of control | [5] 101 % of control

C=CC12CCCCC1C(=C)C(=O)OC2 (stereo not given)
inactive: endpoint: mean survival time, dose: 12.5 mg/kg/injection, schedule: Q04DX002 (ip), vehicle: saline with Tween-80 92 % of control | endpoint: mean survival time, dose: 25.0 mg/kg/injection, schedule: Q04DX002 (ip), vehicle: saline with Tween-80 99 % of control | endpoint: mean survival time, dose: 50.0 mg/kg/injection, schedule: Q04DX002 (ip), vehicle: saline with Tween-80 96 % of control

O=C1OC(=O)c2c1ccc(Br)c2Br
inactive: endpoint: mean survival time, dose: 100.0 mg/kg/injection, schedule: Q01DX009 (ip), vehicle: Klucel (hydroxypropylcellulose) (HPC) 102 % of control | [3] 101 % of control | endpoint: mean survival time, dose: 200.0 mg/kg/injection, schedule: Q01DX009 (ip), vehicle: Klucel (hydroxypropylcellulose) (HPC) 96 % of control | [4] 98 % of control | endpoint: mean survival time, dose: 400.0 mg/kg/injection, schedule: Q01DX009 (ip), vehicle: Klucel (hydroxypropylcellulose) (HPC) 89 % of control | [5] 93 % of control

O=[N+]([O-])c1cc(Br)c(N=Nc2ccc(O)cc2)c(Br)c1
inactive: endpoint: mean survival time, dose: 50.0 mg/kg/injection, schedule: Q01DX001 (ip), vehicle: saline 92 % of control | [1] 114 % of control | [2] 97 % of control | endpoint: mean survival time, dose: 400.0 mg/kg/injection, schedule: Q01DX001 (ip), vehicle: saline 92 % of control

Br/C=C(\Br)C[N+]12CN3CN(CN(C3)C1)C2
inactive: endpoint: mean survival time, dose: 100.0 mg/kg/injection, schedule: Q01DX009 (ip), vehicle: saline with Tween-80 96 % of control | [6] 100 % of control | [7] 114 % of control | [8] 101 % of control

CCC(C)C(C(=O)O)c1ccccc1 (stereo not given)
inactive: [6] 100 % of control | [7] 98 % of control | [8] 94 % of control
